Species on record: Rattus norvegicus
Assay: DrugMatrix - Regimen: Daily Repeat
Format: toxicity, organism-based, Sprague-Dawley
Set-up: regimen Daily Repeat, gender Male, age 6-8 weeks
Conditions: in vivo, po, route oral GAVAGE, […]; for ABSOLUTE BASOPHIL / ABSOLUTE EOSINOPHIL / ABSOLUTE LYMPHOCYTE / ABSOLUTE MONOCYTE / ABSOLUTE SEGMENTED NEUTROPHIL / BASOPHIL / EOSINOPHIL / ERYTHROCYTE COUNT / HEMATOCRIT / HEMOGLOBIN / LEUKOCYTE COUNT / LYMPHOCYTE / MEAN CORPUSCULAR HEMOGLOBIN / MEAN CORPUSCULAR HEMOGLOBIN CONCENTRATION / MEAN CORPUSCULAR VOLUME / MONOCYTE / NEUTROPHIL / NUCLEATED RED BLOOD CELLS / PLATELET COUNT: tissue Blood; for ALANINE AMINOTRANSFERASE / ALBUMIN / ALKALINE PHOSPHATASE / ASPARTATE AMINOTRANSFERASE / BLOOD UREA NITROGEN / CARBON DIOXIDE / CHLORIDE / CHOLESTEROL / CREATINE PHOSPHOKINASE / CREATININE / GLUCOSE / LACTATE DEHYDROGENASE / LIPASE / PHOSPHORUS / POTASSIUM / SODIUM / TOTAL BILIRUBIN / TOTAL PROTEIN / URIC ACID: tissue Plasma
[1] = 300 mg/kg, 120 h, dose level High, time 5 day
[2] = 72 h, dose 2.5 mg/Kg, dose level Low, time 3 day
[3] = 120 h, dose 2.5 mg/Kg, dose level Low, time 5 day

CC(C)c1c(C(=O)Nc2ccccc2)c(-c2ccccc2)c(-c2ccc(F)cc2)n1CC[C@@H](O)C[C@@H](O)CC(=O)O [ATORVASTATIN]
ABSOLUTE BASOPHIL [1]: 0 CELLS/uL
ABSOLUTE EOSINOPHIL [1]: 0 CELLS/uL
ABSOLUTE LYMPHOCYTE [1]: 8045.67 CELLS/uL
ABSOLUTE MONOCYTE [1]: 74 CELLS/uL
ABSOLUTE SEGMENTED NEUTROPHIL [1]: 647 CELLS/uL
BASOPHIL [1]: 0%
EOSINOPHIL [1]: 0%
ERYTHROCYTE COUNT [1]: 6.15 x10E6/uL
HEMATOCRIT [1]: 38.73%
HEMOGLOBIN [1]: 15.2 G/DL
LEUKOCYTE COUNT [1]: 8.77 x10E3/uL
LYMPHOCYTE [1]: 92.33%
MEAN CORPUSCULAR HEMOGLOBIN [1]: 24.73 pg
MEAN CORPUSCULAR HEMOGLOBIN CONCENTRATION [1]: 39.27 G/DL
MEAN CORPUSCULAR VOLUME [1]: 63.03 fL
MONOCYTE [1]: 0.67%
NEUTROPHIL [1]: 7%
NUCLEATED RED BLOOD CELLS [1]: 0 /100WBC
PLATELET COUNT [1]: 1244.33 x10E3/uL
ALANINE AMINOTRANSFERASE [1]: 175.67 u/L
ALBUMIN [1]: 4.63 G/DL
ALKALINE PHOSPHATASE [1]: 577.33 u/L
ASPARTATE AMINOTRANSFERASE [1]: 151.33 u/L
BLOOD UREA NITROGEN [1]: 10.67 mg/dL
CARBON DIOXIDE [1]: 24.67 mmol/L
CHLORIDE [1]: 101.67 MEQ/L
CHOLESTEROL [1]: 52.67 mg/dL
CREATINE PHOSPHOKINASE [1]: 399.67 u/L
CREATININE [1]: 0.22 mg/dL
GLUCOSE [1]: 152.67 mg/dL
LACTATE DEHYDROGENASE [1]: 140.33 u/L
LIPASE [1]: 60.67 u/L
PHOSPHORUS [1]: 9.5 mg/dL
POTASSIUM [1]: 5.73 MEQ/L
SODIUM [1]: 145.97 MEQ/L
TOTAL BILIRUBIN [1]: 0.37 mg/dL
TOTAL PROTEIN [1]: 6.07 G/DL
URIC ACID [1]: 0.9 mg/dL
ABSOLUTE BASOPHIL [2]: 0 CELLS/uL
ABSOLUTE EOSINOPHIL [2]: 0 CELLS/uL
ABSOLUTE LYMPHOCYTE [2]: 8659.67 CELLS/uL
ABSOLUTE MONOCYTE [2]: 90 CELLS/uL
ABSOLUTE SEGMENTED NEUTROPHIL [2]: 583.67 CELLS/uL
BASOPHIL [2]: 0%
EOSINOPHIL [2]: 0%
ERYTHROCYTE COUNT [2]: 5.09 x10E6/uL
HEMATOCRIT [2]: 32.3%
HEMOGLOBIN [2]: 12.6 G/DL
LEUKOCYTE COUNT [2]: 9.33 x10E3/uL
LYMPHOCYTE [2]: 92.67%
MEAN CORPUSCULAR HEMOGLOBIN [2]: 24.77 pg
MEAN CORPUSCULAR HEMOGLOBIN CONCENTRATION [2]: 39.03 G/DL
MEAN CORPUSCULAR VOLUME [2]: 63.43 fL
MONOCYTE [2]: 1%
NEUTROPHIL [2]: 6.33%
NUCLEATED RED BLOOD CELLS [2]: 0 /100WBC
PLATELET COUNT [2]: 1132.33 x10E3/uL
ALANINE AMINOTRANSFERASE [2]: 62 u/L
ALBUMIN [2]: 4.07 G/DL
ALKALINE PHOSPHATASE [2]: 560.67 u/L
ASPARTATE AMINOTRANSFERASE [2]: 82.67 u/L
BLOOD UREA NITROGEN [2]: 12.33 mg/dL
CARBON DIOXIDE [2]: 26 mmol/L
CHLORIDE [2]: 112 MEQ/L
CHOLESTEROL [2]: 33.67 mg/dL
CREATINE PHOSPHOKINASE [2]: 218.33 u/L
CREATININE [2]: 0.14 mg/dL
GLUCOSE [2]: 166.67 mg/dL
LACTATE DEHYDROGENASE [2]: 156.33 u/L
LIPASE [2]: 9.33 u/L
PHOSPHORUS [2]: 9.23 mg/dL
POTASSIUM [2]: 5.66 MEQ/L
SODIUM [2]: 156.57 MEQ/L
TOTAL BILIRUBIN [2]: 0.17 mg/dL
TOTAL PROTEIN [2]: 5.77 G/DL
URIC ACID [2]: 0.9 mg/dL
ABSOLUTE BASOPHIL [3]: 0 CELLS/uL
ABSOLUTE EOSINOPHIL [3]: 60.67 CELLS/uL
ABSOLUTE LYMPHOCYTE [3]: 7091.67 CELLS/uL
ABSOLUTE MONOCYTE [3]: 0 CELLS/uL
ABSOLUTE SEGMENTED NEUTROPHIL [3]: 581 CELLS/uL
BASOPHIL [3]: 0%
EOSINOPHIL [3]: 0.67%
ERYTHROCYTE COUNT [3]: 5.48 x10E6/uL
HEMATOCRIT [3]: 34.67%
HEMOGLOBIN [3]: 13.4 G/DL
LEUKOCYTE COUNT [3]: 7.73 x10E3/uL
LYMPHOCYTE [3]: 91.67%
MEAN CORPUSCULAR HEMOGLOBIN [3]: 24.53 pg
MEAN CORPUSCULAR HEMOGLOBIN CONCENTRATION [3]: 38.7 G/DL
MEAN CORPUSCULAR VOLUME [3]: 63.4 fL
MONOCYTE [3]: 0%
NEUTROPHIL [3]: 7.67%
NUCLEATED RED BLOOD CELLS [3]: 0 /100WBC
PLATELET COUNT [3]: 1069.33 x10E3/uL
ALANINE AMINOTRANSFERASE [3]: 63.33 u/L
ALBUMIN [3]: 3.97 G/DL
ALKALINE PHOSPHATASE [3]: 478 u/L
ASPARTATE AMINOTRANSFERASE [3]: 92 u/L
BLOOD UREA NITROGEN [3]: 11.33 mg/dL
CARBON DIOXIDE [3]: 29.67 mmol/L
CHLORIDE [3]: 98.33 MEQ/L
CHOLESTEROL [3]: 40.67 mg/dL
CREATINE PHOSPHOKINASE [3]: 375.33 u/L
CREATININE [3]: 0.14 mg/dL
GLUCOSE [3]: 160 mg/dL
LACTATE DEHYDROGENASE [3]: 97.33 u/L
LIPASE [3]: 9 u/L
PHOSPHORUS [3]: 11.03 mg/dL
POTASSIUM [3]: 5.44 MEQ/L
SODIUM [3]: 144.03 MEQ/L
TOTAL BILIRUBIN [3]: 0.13 mg/dL
TOTAL PROTEIN [3]: 6.13 G/DL
URIC ACID [3]: 0.43 mg/dL

— ChEMBL document CHEMBL3885881, “DrugMatrix”
